# Measurements published in PMC4512978, “Synthesis and evaluation in rats of homologous series of [^18F]-labeled dopamine D2/3 receptor agonists based on the 2-aminomethylchroman scaffold as potential PET tracers” (EJNMMI Research, 2015).
# System: D2/3R
# Test: Kinetic analysis of PET data (1TCM, 2TCM, Logan, SRTM);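 on 2TCM BPND change relative to control: Raclopride 1 mg/kg intravenous pretreatment versus saline controls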;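 on SRTM BPND change relative to control: Raclopride 1 mg/kg intravenous pretreatment versus saline controls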
# Format: in vivo, Sprague-Dawley rats
# Parameters: key to SRTM BPND / 1TCM BPND / 2TCM BPND (VT-based): BPND = VT(target)/VT(cerebellum) − 1 (or SRTM, cerebellum reference); SRTM BPND change relative to control / 1TCM BPND change relative to control / 2TCM BPND change relative to control / Logan BPND change relative to control: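 Raclopride 1 mg/kg intravenous pretreatment versus saline controls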; 1TCM VT / 2TCM VT: unit not given here
# Experimental: Kinetic analysis is described using the nomenclature proposed by Innis et al.. ROI TACs of [^18F]FEt-AMC13 were analyzed with one-tissue and two-tissue compartmental models of reversible binding (1TCM and 2TCM, respectively) to obtain individual rate constants. From these, the regional distribution volumes (VT) were calculated and compared to those obtained with Logan graphical analysis. Binding potentials (BPND) were calculated from the distribution ratios as VT (target) / VT (cerebellum) – 1, or estimated with the simplified reference tissue model (SRTM) using the cerebellum as reference region.
# Metabolite-corrected plasma-derived arterial input function and whole blood time-activity curve were used for Logan, 1TCM, and 2TCM analyses. Fractional cerebral blood volume was set to 3.6 % [27]. For one rat in the raclopride-treated group, no input curves could be obtained; therefore, its PET data were only analyzed with SRTM.
# Degree of D2/3R-specific binding of the tracers was characterized by BPND (as given above) or the specific binding ratio (SBR) given as target region activity/cerebellar activity - 1. Both were calculated under control conditions and in response to the raclopride challenge.
# [1] = Hypothalamus, raclopride, listed as [18F]FEt-AMC13
# [2] = Olfactory bulbs, raclopride, listed as [18F]FEt-AMC13
smiles,measurement,setting,value
Oc1ccc2c(c1)O[C@@H](CNCc1ccc(OCC[18F])cc1)CC2 [[^18F]FEt-AMC13],2TCM k4,"Hypothalamus, control rat D",0.09 ± 0.01 min⁻¹
same,1TCM BPND,"Hypothalamus, raclopride",0.22±0.04
same,1TCM BPND change relative to control,"Hypothalamus, raclopride",-14%
same,1TCM VT,"Hypothalamus, raclopride",5.38±0.38
same,2TCM BPND (VT-based),"Hypothalamus, raclopride",0.18 ± 0.06
same,2TCM BPND change relative to control,"Hypothalamus, raclopride",−19%
same,2TCM VT,"Hypothalamus, raclopride",5.83±0.34
same,Logan BPND,"Hypothalamus, raclopride",0.16±0.04
same,Logan BPND change relative to control,"Hypothalamus, raclopride",-25%
same,Logan VT,"Hypothalamus, raclopride",5.76±0.26
same,SRTM BPND,"Hypothalamus, raclopride",0.16 ± 0.04
same,SRTM BPND change relative to control,"Hypothalamus, raclopride",−23%
same,2TCM BPND (VT-based),[1],0.18±0.06
same,2TCM BPND change relative to control,[1],-19%
same,SRTM BPND,[1],0.16±0.04
same,SRTM BPND change relative to control,[1],–23%
same,1TCM BPND,"Olfactory bulbs, control",0.07±0.16
same,1TCM VT,"Olfactory bulbs, control",4.99±0.62
same,2TCM BPND (VT-based),"Olfactory bulbs, control",0.08 ± 0.13
same,2TCM VT,"Olfactory bulbs, control",5.45±0.52
same,Logan BPND,"Olfactory bulbs, control",0.12±0.12
same,Logan VT,"Olfactory bulbs, control",5.64±0.57
same,SRTM BPND,"Olfactory bulbs, control",0.10 ± 0.13
same,1TCM K1,"Olfactory bulbs, control rat A",0.55 ± 0.05 mL/g/min
same,1TCM k2,"Olfactory bulbs, control rat A",0.12 ± 0.02 min⁻¹
same,2TCM K1,"Olfactory bulbs, control rat A",3.58 ± 1.65 mL/g/min
same,2TCM k2,"Olfactory bulbs, control rat A",9.75 ± 3.75 min⁻¹
same,2TCM k3,"Olfactory bulbs, control rat A",1.20 ± 2.96 min⁻¹
same,2TCM k4,"Olfactory bulbs, control rat A",0.09 ± 7.03 min⁻¹
same,1TCM K1,"Olfactory bulbs, control rat B",0.49 ± 0.02 mL/g/min
same,1TCM k2,"Olfactory bulbs, control rat B",0.08 ± 0.01 min⁻¹
same,2TCM K1,"Olfactory bulbs, control rat B",0.63 ± 0.07 mL/g/min
same,2TCM k2,"Olfactory bulbs, control rat B",0.47 ± 0.34 min⁻¹
same,2TCM k3,"Olfactory bulbs, control rat B",0.69 ± 0.56 min⁻¹
same,2TCM k4,"Olfactory bulbs, control rat B",0.20 ± 0.04 min⁻¹
same,1TCM K1,"Olfactory bulbs, control rat C",0.44 ± 0.01 mL/g/min
same,1TCM k2,"Olfactory bulbs, control rat C",0.09 ± 0.005 min⁻¹
same,2TCM K1,"Olfactory bulbs, control rat C",0.59 ± 0.10 mL/g/min
same,2TCM k2,"Olfactory bulbs, control rat C",0.68 ± 0.93 min⁻¹
same,2TCM k3,"Olfactory bulbs, control rat C",1.07 ± 3.21 min⁻¹
same,2TCM k4,"Olfactory bulbs, control rat C",0.23 ± 3.75 min⁻¹
same,1TCM K1,"Olfactory bulbs, control rat D",0.50 ± 0.03 mL/g/min
same,1TCM k2,"Olfactory bulbs, control rat D",0.10 ± 0.01 min⁻¹
same,2TCM K1,"Olfactory bulbs, control rat D",1.08 ± 0.20 mL/g/min
same,2TCM k2,"Olfactory bulbs, control rat D",1.82 ± 0.90 min⁻¹
same,2TCM k3,"Olfactory bulbs, control rat D",0.92 ± 0.31 min⁻¹
same,2TCM k4,"Olfactory bulbs, control rat D",0.11 ± 0.01 min⁻¹
same,1TCM BPND,"Olfactory bulbs, raclopride",-0.02±0.03
same,1TCM BPND change relative to control,"Olfactory bulbs, raclopride",-127%
same,1TCM VT,"Olfactory bulbs, raclopride",4.36±0.55
same,2TCM BPND (VT-based),"Olfactory bulbs, raclopride",0.01 ± 0.04
same,2TCM BPND change relative to control,"Olfactory bulbs, raclopride",−88%
same,2TCM VT,"Olfactory bulbs, raclopride",5.02±0.61
same,Logan BPND,"Olfactory bulbs, raclopride",0.03±0.03
same,Logan BPND change relative to control,"Olfactory bulbs, raclopride",-74%
same,Logan VT,"Olfactory bulbs, raclopride",5.14±0.43
same,SRTM BPND,"Olfactory bulbs, raclopride",0.11 ± 0.05
same,SRTM BPND change relative to control,"Olfactory bulbs, raclopride",+10%
same,2TCM BPND (VT-based),[2],0.01±0.04
same,2TCM BPND change relative to control,[2],-88%
same,SRTM BPND,[2],0.11±0.05
same,1TCM BPND,"Pituitary, control",0.32±0.05
same,1TCM VT,"Pituitary, control",6.16±0.35
same,2TCM BPND (VT-based),"Pituitary, control",0.36 ± 0.07
same,2TCM VT,"Pituitary, control",6.89±0.32
same,Logan BPND,"Pituitary, control",0.42±0.05
same,Logan VT,"Pituitary, control",7.15±0.49
same,SRTM BPND,"Pituitary, control",0.71 ± 0.32
same,1TCM K1,"Pituitary, control rat A",0.52 ± 0.05 mL/g/min
same,1TCM k2,"Pituitary, control rat A",0.08 ± 0.02 min⁻¹
same,2TCM K1,"Pituitary, control rat A",6.16 ± 6.57 mL/g/min
same,2TCM k2,"Pituitary, control rat A",16.8 ± 16.5 min⁻¹
same,2TCM k3,"Pituitary, control rat A",1.11 ± 15.04 min⁻¹
same,2TCM k4,"Pituitary, control rat A",0.06 ± 22.82 min⁻¹
same,1TCM K1,"Pituitary, control rat B",0.63 ± 0.04 mL/g/min
same,1TCM k2,"Pituitary, control rat B",0.10 ± 0.01 min⁻¹
same,2TCM K1,"Pituitary, control rat B",1.23 ± 0.31 mL/g/min
same,2TCM k2,"Pituitary, control rat B",1.62 ± 0.42 min⁻¹
same,2TCM k3,"Pituitary, control rat B",0.99 ± 1.42 min⁻¹
same,2TCM k4,"Pituitary, control rat B",0.12 ± 2.70 min⁻¹
same,1TCM K1,"Pituitary, control rat C",0.52 ± 0.02 mL/g/min
same,1TCM k2,"Pituitary, control rat C",0.08 ± 0.01 min⁻¹
same,2TCM K1,"Pituitary, control rat C",0.97 ± 0.34 mL/g/min
same,2TCM k2,"Pituitary, control rat C",1.54 ± 0.73 min⁻¹
same,2TCM k3,"Pituitary, control rat C",1.23 ± 2.61 min⁻¹
same,2TCM k4,"Pituitary, control rat C",0.13 ± 4.28 min⁻¹
same,1TCM K1,"Pituitary, control rat D",0.67 ± 0.05 mL/g/min
same,1TCM k2,"Pituitary, control rat D",0.12 ± 0.02 min⁻¹
same,2TCM K1,"Pituitary, control rat D",1.38 ± 0.24 mL/g/min
same,2TCM k2,"Pituitary, control rat D",1.48 ± 0.20 min⁻¹
same,2TCM k3,"Pituitary, control rat D",0.69 ± 0.58 min⁻¹
same,2TCM k4,"Pituitary, control rat D",0.11 ± 1.34 min⁻¹
same,1TCM BPND,"Pituitary, raclopride",0.18±0.05
same,1TCM BPND change relative to control,"Pituitary, raclopride",-38%
same,1TCM VT,"Pituitary, raclopride",5.33±0.88
same,2TCM BPND change relative to control,"Pituitary, raclopride",−23%
same,2TCM VT,"Pituitary, raclopride",6.34±0.82
same,Logan BPND change relative to control,"Pituitary, raclopride",-26%
same,Logan VT,"Pituitary, raclopride",6.53±0.44
